The values that follow come from patent US8013156B2 (Exelixis, Inc., priority 2003, dated 2011).

As usually defined, the IC50 is the concentration at which inhibition is half-maximal. Low values mean greater potency, high ones weaker potency.

The target in this experiment is Tie-2 (Homo sapiens, UniProt Q02763). Kind of experiment: Tie-2 tyrosine kinase activity assay (luciferase/luciferin ATP consumption with pEY substrate, or 33P-ATP incorporation). Format: biochemical. As to conditions: human enzyme Tie-2. The method in brief:
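Values are IC50 categories (A <50 nM to D ≥10,000 nM), with Ki obtainable by fitting rates to a tight-binding model. Assay formats: 33P-ATP phosphate transfer to adsorbed generic substrate counted by scintillation, or luciferase-detected ATP depletion using pEY.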

Sequence of Tie-2 (Q02763 23-1124): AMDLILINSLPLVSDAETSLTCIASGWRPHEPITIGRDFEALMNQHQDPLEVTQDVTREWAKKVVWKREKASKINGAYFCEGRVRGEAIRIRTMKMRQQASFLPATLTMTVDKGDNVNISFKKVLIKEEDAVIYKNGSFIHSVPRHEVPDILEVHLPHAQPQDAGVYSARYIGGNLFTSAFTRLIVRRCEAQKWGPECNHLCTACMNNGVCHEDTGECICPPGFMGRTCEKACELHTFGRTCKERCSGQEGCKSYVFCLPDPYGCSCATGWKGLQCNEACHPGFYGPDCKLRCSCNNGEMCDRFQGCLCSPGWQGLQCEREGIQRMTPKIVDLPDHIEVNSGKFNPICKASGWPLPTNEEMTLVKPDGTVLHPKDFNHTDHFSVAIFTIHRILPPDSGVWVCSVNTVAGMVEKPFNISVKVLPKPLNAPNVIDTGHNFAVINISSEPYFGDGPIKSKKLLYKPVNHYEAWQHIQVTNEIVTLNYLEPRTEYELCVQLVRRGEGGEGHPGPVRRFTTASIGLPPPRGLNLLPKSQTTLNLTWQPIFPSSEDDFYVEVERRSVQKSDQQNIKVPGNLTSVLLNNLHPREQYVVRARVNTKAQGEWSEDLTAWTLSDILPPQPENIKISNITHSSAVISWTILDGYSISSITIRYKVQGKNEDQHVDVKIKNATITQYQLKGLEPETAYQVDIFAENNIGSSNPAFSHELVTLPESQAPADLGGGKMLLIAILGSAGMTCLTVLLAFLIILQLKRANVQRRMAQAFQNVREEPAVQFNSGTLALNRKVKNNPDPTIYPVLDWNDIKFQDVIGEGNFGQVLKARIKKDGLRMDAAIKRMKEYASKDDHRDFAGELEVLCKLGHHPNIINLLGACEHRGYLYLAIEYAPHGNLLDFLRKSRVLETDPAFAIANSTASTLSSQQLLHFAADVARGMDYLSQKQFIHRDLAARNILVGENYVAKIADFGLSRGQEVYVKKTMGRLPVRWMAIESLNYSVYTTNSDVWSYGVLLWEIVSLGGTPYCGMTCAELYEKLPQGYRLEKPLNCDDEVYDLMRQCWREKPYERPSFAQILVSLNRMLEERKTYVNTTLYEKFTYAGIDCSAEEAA

In turn, `NC(=O)c1nccc(COc2nsnc2N2CCN(C(=O)Nc3cc(C(F)(F)F)cc(C(F)(F)F)c3)CC2)n1` [Example 136, 4-[({4-[4-({[3,5-bis(trifluoromethyl)phenyl]amino}carbonyl)piperazin-1-yl]-1,2,5-thiadiazol-3-yl}oxy)methyl]pyrimidine-2-carboxamide] gave a half-maximal inhibitory concentration (IC50) of 50 to 1000 nM.

`CCCCOc1nccc(COc2nsnc2N2CCN(C(=O)Nc3cc(C(F)(F)F)cc(C(F)(F)F)c3)CC2)n1` [Example 137, N-[3,5-bis(trifluoromethyl)phenyl]-4-[4-({[2-(butyloxy)pyrimidin-4-yl]methyl}oxy)-1,2,5-thiadiazol-3-yl]piperazine-1-carboxamide] had an IC50 of no less than 10000 nM.

In the case of `O=C(Nc1cc(C(F)(F)F)cc(C(F)(F)F)c1)N1CCN(c2nsnc2OCc2ccncn2)CC1` [Example 138, N-[3,5-bis(trifluoromethyl)phenyl]-4-{4-[(pyrimidin-4-ylmethyl)oxy]-1,2,5-thiadiazol-3-yl}piperazine-1-carboxamide], the half-inhibitory concentration (IC50) lay in the range of 50 to 1000 nM.

For the compound `O=C(O)c1cc(COc2nsnc2N2CCN(C(=O)Nc3cc(C(F)(F)F)cc(C(F)(F)F)c3)CC2)ccn1` [Example 139, 4-[({4-[4-({[3,5-bis(trifluoromethyl)phenyl]amino}carbonyl)piperazin-1-yl]-1,2,5-thiadiazol-3-yl}oxy)methyl]pyridine-2-carboxylic acid], the concentration for half-maximal inhibition (IC50) was no less than 10000 nM.

As for `O=C(Nc1cc(COc2nsnc2N2CCN(C(=O)Nc3cc(C(F)(F)F)cc(C(F)(F)F)c3)CC2)ccn1)OCCN1CCCC1` [Example 140, 2-pyrrolidin-1-ylethyl {4-[({4-[4-({[3,5-bis(trifluoromethyl)phenyl]amino}carbonyl)piperazin-1-yl]-1,2,5-thiadiazol-3-yl}oxy)methyl]pyridin-2-yl}carbamate], the IC50 is less than 50 nM.

`O=C(Nc1cc(COc2nsnc2N2CCN(C(=O)Nc3cc(C(F)(F)F)cc(C(F)(F)F)c3)CC2)ccn1)OCCN1CCOCC1` [Example 141, 2-morpholin-4-ylethyl {4-[({4-[4-({[3,5-bis(trifluoromethyl)phenyl]amino}carbonyl)piperazin-1-yl]-1,2,5-thiadiazol-3-yl}oxy)methyl]pyridin-2-yl}carbamate] displayed an IC50 of less than 50 nM.

On to `Nc1nccc(COc2cccnc2N2CCN(C(=O)Nc3cc(C(F)(F)F)cc(C(F)(F)F)c3)CC2)n1` [Example 142, 4-(3-{[(2-aminopyrimidin-4-yl)methyl]oxy}pyridin-2-yl)-N-[3,5-bis(trifluoromethyl)phenyl]piperazine-1-carboxamide], for which the concentration for half-maximal inhibition (IC50) was less than 50 nM.

In the case of `CN1CCCC(C(=O)Nc2cc(COc3nsnc3N3CCN(C(=O)Nc4cc(C(F)(F)F)cc(C(F)(F)F)c4)CC3)ccn2)C1` (stereo not drawn) [Example 143, N-[3,5-bis(trifluoromethyl)phenyl]-4-(4-{[(2-{[(1-methylpiperidin-3-yl)carbonyl]amino}pyridin-4-yl)methyl]oxy}-1,2,5-thiadiazol-3-yl)piperazine-1-carboxamide], the IC50 was less than 50 nM.

In the case of `CCc1cccc(NC(=O)N2CCN(c3ncccc3OCc3ccnc(N)n3)CC2)c1` [Example 144, 4-(3-{[(2-aminopyrimidin-4-yl)methyl]oxy}pyridin-2-yl)-N-(3-ethylphenyl)piperazine-1-carboxamide], the IC50 was less than 50 nM.

Compound `CN1CCN(CCOC(=O)Nc2cc(COc3nsnc3N3CCN(C(=O)Nc4cc(C(F)(F)F)cc(C(F)(F)F)c4)CC3)ccn2)CC1` [Example 145, 2-(4-methylpiperazin-1-yl)ethyl {4-[({4-[4-({[3,5-bis(trifluoromethyl)phenyl]amino}carbonyl)piperazin-1-yl]-1,2,5-thiadiazol-3-yl}oxy)methyl]pyridin-2-yl}carbamate] gave a half-maximal inhibitory concentration (IC50) of less than 50 nM.

The compound `CCN1CCC(C(=O)Nc2cc(COc3nsnc3N3CCN(C(=O)Nc4cc(C(F)(F)F)cc(C(F)(F)F)c4)CC3)ccn2)CC1` [Example 146, N-[3,5-bis(trifluoromethyl)phenyl]-4-(4-{[(2-{[(1-ethylpiperidin-4-yl)carbonyl]amino}pyridin-4-yl)methyl]oxy}-1,2,5-thiadiazol-3-yl)piperazine-1-carboxamide] gave an IC50 of less than 50 nM.

Turning to `Nc1cc(COc2nsnc2N2CCN(C(=O)Nc3cccc(SC(F)(F)F)c3)CC2)ccn1` [Example 147, 4-(4-{[(2-aminopyridin-4-yl)methyl]oxy}-1,2,5-thiadiazol-3-yl)-N-{3-[(trifluoromethyl)thio]phenyl}piperazine-1-carboxamide], the IC50 was less than 50 nM.

As to `Nc1cc(COc2nsnc2N2CCN(S(=O)(=O)c3cc(C(F)(F)F)cc(C(F)(F)F)c3)CC2)ccn1` [Example 148, 4-({[4-(4-{[3,5-bis(trifluoromethyl)phenyl]sulfonyl}piperazin-1-yl)-1,2,5-thiadiazol-3-yl]oxy}methyl)pyridin-2-amine], the IC50 was no less than 10000 nM.

For the compound `Nc1cc(COc2nsnc2N2CCN(C(=O)Nc3cccc4ccccc34)CC2)ccn1` [Example 149, 4-(4-{[(2-aminopyridin-4-yl)methyl]oxy}-1,2,5-thiadiazol-3-yl)-N-naphthalen-1-ylpiperazine-1-carboxamide], the half-inhibitory concentration (IC50) was no less than 10000 nM.

As for `CN(C)CC(=O)Nc1cc(COc2nsnc2N2CCN(C(=O)Nc3cc(C(F)(F)F)cc(C(F)(F)F)c3)CC2)ccn1` [Example 150, N-[3,5-bis(trifluoromethyl)phenyl]-4-{4-[({2-[(N,N-dimethylglycyl)amino]pyridin-4-yl}methyl)oxy]-1,2,5-thiadiazol-3-yl}piperazine-1-carboxamide], the concentration for half-maximal inhibition (IC50) was less than 50 nM.

In turn, `O=C(CN1CCOCC1)Nc1cc(COc2nsnc2N2CCN(C(=O)Nc3cc(C(F)(F)F)cc(C(F)(F)F)c3)CC2)ccn1` [Example 151, N-[3,5-bis(trifluoromethyl)phenyl]-4-{4-[({2-[(morpholin-4-ylacetyl)amino]pyridin-4-yl}methyl)oxy]-1,2,5-thiadiazol-3-yl}piperazine-1-carboxamide] gave a concentration for half-maximal inhibition (IC50) of less than 50 nM.

Turning to `O=C(CN1CCCCC1)Nc1cc(COc2nsnc2N2CCN(C(=O)Nc3cc(C(F)(F)F)cc(C(F)(F)F)c3)CC2)ccn1` [Example 152, N-[3,5-bis(trifluoromethyl)phenyl]-4-{4-[({2-[(piperidin-1-ylacetyl)amino]pyridin-4-yl}methyl)oxy]-1,2,5-thiadiazol-3-yl}piperazine-1-carboxamide], the concentration for half-maximal inhibition (IC50) was in the range of 50 to 1000 nM.

The compound `CCOC(=O)Nc1cc(COc2nsnc2N2CCN(C(=O)Nc3cc(C(F)(F)F)cc(C(F)(F)F)c3)CC2)ccn1` [Example 153, ethyl {4-[({4-[4-({[3,5-bis(trifluoromethyl)phenyl]amino}carbonyl)piperazin-1-yl]-1,2,5-thiadiazol-3-yl}oxy)methyl]pyridin-2-yl}carbamate] had an IC50 of less than 50 nM.

In the case of `O=C(CN1CCCC1)Nc1cc(COc2nsnc2N2CCN(C(=O)Nc3cc(C(F)(F)F)cc(C(F)(F)F)c3)CC2)ccn1` [Example 154, N-[3,5-bis(trifluoromethyl)phenyl]-4-{4-[({2-[(pyrrolidin-1-ylacetyl)amino]pyridin-4-yl}methyl)oxy]-1,2,5-thiadiazol-3-yl}piperazine-1-carboxamide], the IC50 was less than 50 nM.

In the case of `CN1CCN(CC(=O)Nc2cc(COc3nsnc3N3CCN(C(=O)Nc4cc(C(F)(F)F)cc(C(F)(F)F)c4)CC3)ccn2)CC1` [Example 155, N-[3,5-bis(trifluoromethyl)phenyl]-4-(4-{[(2-{[(4-methylpiperazin-1-yl)acetyl]amino}pyridin-4-yl)methyl]oxy}-1,2,5-thiadiazol-3-yl)piperazine-1-carboxamide], the half-maximal inhibitory concentration (IC50) is less than 50 nM.

Consider `CCN(CC)CC(=O)Nc1cc(COc2nsnc2N2CCN(C(=O)Nc3cc(C(F)(F)F)cc(C(F)(F)F)c3)CC2)ccn1` [Example 156, N-[3,5-bis(trifluoromethyl)phenyl]-4-{4-[({2-[(N,N-diethylglycyl)amino]pyridin-4-yl}methyl)oxy]-1,2,5-thiadiazol-3-yl}piperazine-1-carboxamide], for which the half-inhibitory concentration (IC50) fell in the range of 50 to 1000 nM.

Take `CCN1CCC(OC(=O)Nc2cc(COc3nsnc3N3CCN(C(=O)Nc4cc(C(F)(F)F)cc(C(F)(F)F)c4)CC3)ccn2)CC1` [Example 157, 1-ethylpiperidin-4-yl {4-[({4-[4-({[3,5-bis(trifluoromethyl)phenyl]amino}carbonyl)piperazin-1-yl]-1,2,5-thiadiazol-3-yl}oxy)methyl]pyridin-2-yl}carbamate]: the IC50 was less than 50 nM.

`CCc1cccc(NC(=O)N2CCN(c3nsnc3OCc3ccnc(N)n3)CC2)c1` [Example 158, 4-(4-{[(2-aminopyrimidin-4-yl)methyl]oxy}-1,2,5-thiadiazol-3-yl)-N-(3-ethylphenyl)piperazine-1-carboxamide] registered an IC50 of 50 to 1000 nM.

With `O=C(Nc1cc(C(F)(F)F)cc(C(F)(F)F)c1)N1CCN(c2nsnc2OCc2ccnc(N3CCOC3=O)c2)CC1` [Example 159, N-[3,5-bis(trifluoromethyl)phenyl]-4-[4-({[2-(2-oxo-1,3-oxazolidin-3-yl)pyridin-4-yl]methyl}oxy)-1,2,5-thiadiazol-3-yl]piperazine-1-carboxamide], the IC50 is no less than 10000 nM.

For the compound `CCN(CC)CCOC(=O)Nc1cc(COc2nsnc2N2CCN(C(=O)Nc3cc(C(F)(F)F)cc(C(F)(F)F)c3)CC2)ccn1` [Example 160, 2-(diethylamino)ethyl {4-[({4-[4-({[3,5-bis(trifluoromethyl)phenyl]amino}carbonyl)piperazin-1-yl]-1,2,5-thiadiazol-3-yl}oxy)methyl]pyridin-2-yl}carbamate], the IC50 was less than 50 nM.

`CCc1cccc(NC(=O)N2CCN(c3ncccc3OCc3ccnc(NC(=O)OC)c3)CC2)c1` [Example 161, methyl [4-({[2-(4-{[(3-ethylphenyl)amino]carbonyl}piperazin-1-yl)pyridin-3-yl]oxy}methyl)pyridin-2-yl]carbamate] yielded a half-inhibitory concentration (IC50) of less than 50 nM.

Compound `O=C(Nc1nccc(COc2nsnc2N2CCN(C(=O)Nc3cc(C(F)(F)F)cc(C(F)(F)F)c3)CC2)n1)OCCN1CCCC1` [Example 162, 2-pyrrolidin-1-ylethyl {4-[({4-[4-({[3,5-bis(trifluoromethyl)phenyl]amino}carbonyl)piperazin-1-yl]-1,2,5-thiadiazol-3-yl}oxy)methyl]pyrimidin-2-yl}carbamate] showed an IC50 of 50 to 1000 nM.
